Reference: publication PMC9820345, “Metal Complexes of a 5-Nitro-8-Hydroxyquinoline-Proline Hybrid with Enhanced Water Solubility Targeting Multidrug Resistant Cancer Cells” (International Journal of Molecular Sciences, 2022)

Columns and labels:
[1] = Stability of the isolated complexes in aqueous solution at pH 7.4 (UV-vis over 72 h); assay type: physicochemical
Protocol: The stability of the isolated RhCp* and RuCym complexes in aqueous solution at pH 7.4 was assayed via recording the UV-vis spectra over 72 h (Figure S18). […] Then, the behaviour of the complexes was monitored between pH 2 and 12 by ^1H NMR spectroscopy (see representative spectra of the RuCym complex in Figure 8) in chloride-free medium, as this halide ion can act as a competitor ligand. There was no indication for the dissociation of the complexes (i.e., liberation of unbound ligand or metal precursor) in the studied pH range or even at pH 1 (Figure S19), showing their fairly high stability in solution.
An Agilent Cary 8454 diode array spectrophotometer (Santa Clara, CA, USA) was used to obtain UV-vis spectra in the wavelength range 200–1000 nm, while spectra were recorded for the Fe(II)-containing samples using an Avantes (Avantes B.V., Apeldoorn, The Nederlands) AvaSpec-ULS2048CL-EVO spectrometer with an AvaLight-DHc light source and FDP-7UVIR200-2-VAR transmission dip probe. The titrations for the Fe(II)-containing samples were performed in a laboratory glove box (GP(Campus), Jacomex) (O2 content ≤ 1 ppm). The path length (ℓ) was 1 cm in most cases (the actual ℓ is always indicated in the legends of the figures). The concentrations of the ligands and complexes were between 40 and 200 µM, and 0.2 M KNO3 for the organometallic complexes or 0.1 M KCl for the Fe(II/III), Cu(II), and Zn(II) complexes were used to adjust the constant ionic strength. For HSA containing samples, complex concentrations were 50 µM, and 0.5, and 2 equiv. biomolecules were added for kinetic studies, respectively. For HSA model containing samples, complex concentrations were 50 µM, and the model concentrations were 0–150 µM and 0–500 µM, respectively, and the pH was 7.4 (PBS’). Spectra were always background and baseline corrected. The computer program HypSpec was used to obtain stability constants. Hydrolysis constants of the Fe(III), Fe(II), RuCym, and RhCp* species were included in the speciation models (see Table S4 with the data taken from References).

[2] = Stability of the complexes in blood serum (UV-vis); assay type: in vitro ADME, human; conditions: blood serum four-time diluted with PBS'; after 24 h
Text: The stability of the RhCp* and RuCym complexes of HQNO2-L-Pro was also monitored in Roswell Park Memorial Institute (RPMI) medium used for the in vitro cell studies (in the case of Colo cells), and in blood serum using UV-vis and ^1H NMR spectroscopy. […] Despite these changes, the dissociation of the complexes is not likely as the liberation of the unbound ligand was not observed; thus, the complexes most probably form ternary complexes with the components of the serum or the medium. In order to further study the reactivity of these complexes with bioligands, their interaction with human serum albumin (HSA) and selected oligopeptides (also used as binding models of HSA) was assayed.
Stock and sample solutions were prepared using Milli-Q water. […] Their concentrations were determined by complexometry via the EDTA complexes. […] The concentration of the Fe(II) stock solution was determined by permanganometric titrations under acidic conditions. […] Residual citrate content of HSA was removed by repeated ultrafiltration of the protein stock solution, and its concentration was calculated from its UV absorption: λ280nm (HSA) = 36,850 M^−1 cm^−1 [51]. […]

Ac-Phe-His-Ala-NH2 (FHA) = assay: Mixed-ligand adduct formation with His-containing oligopeptide FHA; assay type: binding
Protocol: According to numerous papers on the binding of half-sandwich organometallic complexes to HSA [35, 36], surface exposed histidine (His) side chains are the most feasible coordinating moieties. […] The equilibrium could be reached within 3–10 min in the case of the RhCp* complex on the basis of the UV-vis spectral changes (Figure S28), and similar conditional constants (logK’) were computed with these model compounds for the formation of mixed-ligand RhCp* complexes; namely logK’ 5.00 ± 0.1, 4.4 ± 0.1, 5.1 ± 0.1 were obtained in the case of FHA, AHA, and mim, respectively. […] In the case of the oligopeptides, formation of isomers was detected which might be explained by the existence of two chiral centers, namely the metal ion and His-CHα. The adduct formation of the RuCym complex with mim was quantitative, hindering the determination of the logK’ value (meaning logK’ > 5.5). […]
An Agilent Cary 8454 diode array spectrophotometer (Santa Clara, CA, USA) was used to obtain UV-vis spectra in the wavelength range 200–1000 nm, while spectra were recorded for the Fe(II)-containing samples using an Avantes (Avantes B.V., Apeldoorn, The Nederlands) AvaSpec-ULS2048CL-EVO spectrometer with an AvaLight-DHc light source and FDP-7UVIR200-2-VAR transmission dip probe. […]

SMILES | UV-vis spectral changes in aqueous solution ([1]; after 48 h) | UV-vis spectral changes in aqueous solution ([1]; first 24 h) | changes of the charge-transfer bands (400–500 nm) on incubation in serum [2] | conditional constant logK' of mixed-ligand complex (Ac-Phe-His-Ala-NH2 (FHA); pH 7.4, UV-vis) | conditional constant logK' of adduct (Ac-Phe-His-Ala-NH2 (FHA); pH 7.4, 1H NMR peak integrals, 24 h incubation)
CC1=C(C)[C](C)([Rh]([Cl])[O]c2c(C[NH+]3CCC[C@H]3C(=O)O)cc([N+](=O)[O-])c3cccnc23)C(C)=C1C.[Cl-] [RhCp*-HQNO2-L-Pro, [RhCp*(HQNO2-L-Pro)Cl]Cl] | minor spectral change | no measurable changes | minor changes | 5.00 ± 0.1 | –
Cc1ccc(C(C)C)cc1.O=C(O)[C@@H]1CCC[NH+]1Cc1cc([N+](=O)[O-])c2ccc[n+]3c2c1[O][Ru-]3[Cl].[Cl-] [RuCym-HQNO2-L-Pro, [RuCym(HQNO2-L-Pro)Cl]Cl] | – | no measurable changes | minor changes | – | 3.9 ± 0.2
